The text below walks through data of patent publication US20230365592A1 (Agios Pharmaceuticals, Inc., priority 2022, published 2023).

Bounds are passed on as bounds.

One test deals with T1, human PAH with the R408W mutation (Homo sapiens, UniProt P00439, R408W).
T1 construct: expressed in transfected cells
T1 sequence (P00439 1-452 R408W): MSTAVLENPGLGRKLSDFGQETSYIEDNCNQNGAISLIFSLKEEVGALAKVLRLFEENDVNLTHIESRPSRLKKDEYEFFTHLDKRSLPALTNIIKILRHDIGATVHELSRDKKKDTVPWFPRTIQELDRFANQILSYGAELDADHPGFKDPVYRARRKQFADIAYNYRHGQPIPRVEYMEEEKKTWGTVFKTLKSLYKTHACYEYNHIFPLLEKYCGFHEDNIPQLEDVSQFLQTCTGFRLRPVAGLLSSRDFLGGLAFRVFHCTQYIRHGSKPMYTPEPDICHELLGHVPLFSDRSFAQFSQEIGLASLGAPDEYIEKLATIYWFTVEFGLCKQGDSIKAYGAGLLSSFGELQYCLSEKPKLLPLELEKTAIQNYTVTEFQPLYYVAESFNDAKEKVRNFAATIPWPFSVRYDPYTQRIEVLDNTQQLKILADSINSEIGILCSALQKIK
In words: Cell Based Phenylalanine Flux Assay.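 Also: after compound treatment, cells received sepiapterin plus isotope-labelled Phenylalanine for 4 hours, then labelled Tyrosine in the medium was quantified, 10-point 2-fold dilution series run in duplicate.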 Conditions: A375 cells expressing R408W PAH; 24 hrs with compound, then 20 µM sepiapterin and 800 µM 13C9,15N-Phenylalanine for 4 hours; 13C-Tyrosine by LC-MS; average where tested multiple times; read-out: AC50.
`Cc1nc(C(=O)N2CCc3[nH]cnc3C2c2cc3cccc(C(F)(F)F)n3n2)n(C)n1` (stereo not drawn): the AC50 (commonly the midpoint of the concentration-response curve, whichever way the signal moves) is greater than 5 µM.
Same read-out and setting: then `Cn1cncc1-c1nnc(C(=O)N2CCc3[nH]cnc3C2c2cc3c(F)cccn3n2)o1` (stereo not drawn), with 1 to 5 µM; and `COCc1ccc2c(C(=O)N3CCc4[nH]cnc4C3c3cc4c(C(F)F)cccn4n3)cnn2c1` (stereo not drawn), with 1 to 5 µM.
On to `Fc1cccn2nc(C3c4nc[nH]c4CCN3c3nnc(-c4ncccn4)o3)cc12` (stereo not drawn), for which the AC50 was 1 to 5 µM.
Consider `O=C(c1cn[nH]c1Cl)N1CCc2[nH]cnc2C1c1cc2ccccn2n1` (stereo not drawn), for which the AC50 lay within 1 to 5 µM.
The same measure, in the same setting: under `c1cc(C2CC2)c2cc(C3c4nc[nH]c4CCN3c3nnc(-c4ccncn4)o3)nn2c1` (stereo not drawn) stands greater than 5 µM.

The same test, now with this note: A375 cells expressing human PAH R408W; 24 hrs compound incubation; 13C-Tyrosine by LC-MS; average where tested multiple times; read-out: AC50.
Turning to `O=C(c1nnc(-c2ccccn2)o1)N1CCc2[nH]cnc2[C@H]1c1cc2c(Br)cccn2n1` [Example 1911, (S)-(4-(4-bromopyrazolo[1,5-a]pyridin-2-yl)-1,4,6,7-tetrahydro-5H-imidazo[4,5-c]pyridin-5-yl)(5-(pyridin-2-yl)-1,3,4-oxadiazol-2-yl)methanone], the AC50 is less than 0.5 µM.
The same measure, in the same setting: under `O=C(c1oc(-c2ccccn2)nc1C1CC1)N1CCc2[nH]cnc2[C@@H]1c1cc2c(F)cccn2n1` [Example 2119, (R)-(4-cyclopropyl-2-(pyridin-2-yl)oxazol-5-yl)(4-(4-fluoropyrazolo[1,5-a]pyridin-2-yl)-1,4,6,7-tetrahydro-5H-imidazo[4,5-c]pyridin-5-yl)methanone] stands 1 to 5 µM; under `Fc1cccnc1-c1nnc(N2CCc3[nH]cnc3[C@@H]2c2cc3ccccn3n2)o1` [Example 2339, (R)-2-(3-fluoropyridin-2-yl)-5-(4-(pyrazolo[1,5-a]pyridin-2-yl)-1,4,6,7-tetrahydro-5H-imidazo[4,5-c]pyridin-5-yl)-1,3,4-oxadiazole], greater than 5 µM; under `Cc1cccn2nc([C@@H]3c4nc[nH]c4CCN3c3ccccc3)cc12` [Example 2311, (S)-4-(4-methylpyrazolo[1,5-a]pyridin-2-yl)-5-phenyl-4,5,6,7-tetrahydro-1H-imidazo[4,5-c]pyridine], less than 0.5 µM.
As for `Clc1cccn2nc([C@H]3c4nc[nH]c4CCN3c3nnc(-c4ccncn4)o3)cc12` [Example 2183, (R)-2-(4-(4-chloropyrazolo[1,5-a]pyridin-2-yl)-1,4,6,7-tetrahydro-5H-imidazo[4,5-c]pyridin-5-yl)-5-(pyrimidin-4-yl)-1,3,4-oxadiazole], the AC50 is greater than 5 µM.
With `CCc1cccn2nc([C@@H]3c4nc[nH]c4CCN3C(=O)c3nnc(C(C)(C)F)o3)cc12` [Example 1922, (S)-(4-(4-ethylpyrazolo[1,5-a]pyridin-2-yl)-1,4,6,7-tetrahydro-5H-imidazo[4,5-c]pyridin-5-yl)(5-(2-fluoropropan-2-yl)-1,3,4-oxadiazol-2-yl)methanone], the AC50 is less than 0.5 µM.
On to `CC(F)(F)c1nnc(N2CCc3[nH]cnc3[C@H]2c2cc3cccc(Cl)n3n2)o1` [Example 2327, (S)-2-(4-(7-chloropyrazolo[1,5-a]pyridin-2-yl)-1,4,6,7-tetrahydro-5H-imidazo[4,5-c]pyridin-5-yl)-5-(1,1-difluoroethyl)-1,3,4-oxadiazole], for which the AC50 is 1 to 5 µM.

The test is the same for the next values; noted with them: A375 cells expressing human R408W PAH; 24 hrs compound incubation; 13C-Tyrosine by LC-MS; average where tested multiple times; read-out: AC50.
With `Cc1cccn2nc([C@H]3c4nc[nH]c4CCN3C(=O)c3nnc(C(C)(C)F)o3)cc12` [Example 923, (R)-(5-(2-fluoropropan-2-yl)-1,3,4-oxadiazol-2-yl)(4-(4-methylpyrazolo[1,5-a]pyridin-2-yl)-6,7-dihydro-1H-imidazo[4,5-c]pyridin-5(4H)-yl)methanone], the AC50 is greater than 5 µM.
Consider `Cn1cc(-c2nnc(C(=O)N3CCc4[nH]cnc4[C@H]3c3cc4ccccn4n3)o2)c(C(F)(F)F)n1` [Example 678, (S)-(5-(1-methyl-3-(trifluoromethyl)-1H-pyrazol-4-yl)-1,3,4-oxadiazol-2-yl)(4-(pyrazolo[1,5-a]pyridin-2-yl)-6,7-dihydro-1H-imidazo[4,5-c]pyridin-5(4H)-yl)methanone], for which the AC50 is 1 to 5 µM.
`O=C(c1nnc(-c2ncccn2)o1)N1CCc2[nH]cnc2[C@H]1c1cc2c(C(F)F)cccn2n1` [Example 1413, (S)-(4-(4-(difluoromethyl)pyrazolo[1,5-a]pyridin-2-yl)-6,7-dihydro-1H-imidazo[4,5-c]pyridin-5(4H)-yl)(5-(pyrimidin-2-yl)-1,3,4-oxadiazol-2-yl)methanone]: the AC50 lay within 0.5 to 1 µM.
As for `Cn1cnc(-c2nnc(C(=O)N3CCc4[nH]cnc4[C@@H]3c3cc4cccc(C(F)(F)F)n4n3)o2)c1` [Example 1033, (R)-(5-(1-methyl-1H-imidazol-4-yl)-1,3,4-oxadiazol-2-yl)(4-(7-(trifluoromethyl)pyrazolo[1,5-a]pyridin-2-yl)-6,7-dihydro-1H-imidazo[4,5-c]pyridin-5(4H)-yl)methanone], the concentration at half-maximal activity (AC50) lay within 1 to 5 µM.
As for `O=C(c1nnc(-c2cnn(C(F)F)c2)o1)N1CCc2[nH]cnc2[C@@H]1c1cc2ccccn2n1` [Example 651, (R)-(5-(1-(difluoromethyl)-1H-pyrazol-4-yl)-1,3,4-oxadiazol-2-yl)(4-(pyrazolo[1,5-a]pyridin-2-yl)-6,7-dihydro-1H-imidazo[4,5-c]pyridin-5(4H)-yl)methanone], the AC50 lay within 1 to 5 µM.
In the case of `Cc1cnn(C)c1-c1nnc(C(=O)N2CCc3[nH]cnc3[C@@H]2c2cc3c(C(F)F)cccn3n2)o1` [Example 1569, (R)-(4-(4-(difluoromethyl)pyrazolo[1,5-a]pyridin-2-yl)-6,7-dihydro-1H-imidazo[4,5-c]pyridin-5(4H)-yl)(5-(1,4-dimethyl-1H-pyrazol-5-yl)-1,3,4-oxadiazol-2-yl)methanone], the AC50 is greater than 5 µM.
For `Cc1cc(F)ccc1-c1nnc(C(=O)N2CCc3[nH]cnc3[C@H]2c2cc3ccccn3n2)o1` [Example 654, (S)-(5-(4-fluoro-2-methylphenyl)-1,3,4-oxadiazol-2-yl)(4-(pyrazolo[1,5-a]pyridin-2-yl)-6,7-dihydro-1H-imidazo[4,5-c]pyridin-5(4H)-yl)methanone], the AC50 was less than 0.5 µM.
Same read-out and setting: under `CC(C)(F)c1nc(C(F)F)c(C(=O)N2CCc3[nH]cnc3[C@@H]2c2cc3c(C(F)(F)F)cccn3n2)o1` [Example 1219, (R)-(4-(difluoromethyl)-2-(2-fluoropropan-2-yl)oxazol-5-yl)(4-(4-(trifluoromethyl)pyrazolo[1,5-a]pyridin-2-yl)-6,7-dihydro-1H-imidazo[4,5-c]pyridin-5(4H)-yl)methanone] stands 0.5 to 1 µM.
Still for that read-out and setting: under `Cc1cccc2cc([C@@H]3c4nc[nH]c4CCN3C(=O)c3nnc(-c4ccn(C(F)F)n4)o3)nn12` [Example 936, (S)-(5-(1-(difluoromethyl)-1H-pyrazol-3-yl)-1,3,4-oxadiazol-2-yl)(4-(7-methylpyrazolo[1,5-a]pyridin-2-yl)-6,7-dihydro-1H-imidazo[4,5-c]pyridin-5(4H)-yl)methanone] stands less than 0.5 µM; under `O=C(c1ccnn1C(F)F)N1CCc2[nH]cnc2[C@@H]1c1cc2ccc(F)cn2n1` [Example 1089, (R)-(1-(difluoromethyl)-1H-pyrazol-5-yl)(4-(6-fluoropyrazolo[1,5-a]pyridin-2-yl)-6,7-dihydro-1H-imidazo[4,5-c]pyridin-5(4H)-yl)methanone], greater than 5 µM; under `Cc1ncoc1C(=O)N1CCc2[nH]cnc2[C@@H]1c1cc2cccc(C)n2n1` [Example 1149, (R)-(4-methyloxazol-5-yl)(4-(7-methylpyrazolo[1,5-a]pyridin-2-yl)-6,7-dihydro-1H-imidazo[4,5-c]pyridin-5(4H)-yl)methanone], 1 to 5 µM.
